This is an account of results in patent US11279711B2, “Condensed heterocyclic derivates as BCL-2 inhibitors for the treatment of neoplastic diseases” (Newave Pharmaceutical Inc., priority 2017, dated 2022).

Each structure is given as a SMILES string. A value given as a limit tells only on which side of the number the result lay.

For series [1] the following is noted: cited from earlier work.
For series [2] the following is noted: in vivo; cited from earlier work.
In series [3] the test system is H146. In words: In vitro anti-proliferation assay (ATPlite), small cell lung cancer cell line H146. The series is classed as cell-based. The following applies: 5% FBS, about 72 hours. Here is the method: (§1) Biological Example 3: In Vitro Anti-Proliferation Assay in Small Cell Lung Cancer (SCLC) Cell Line
(§2) Cell antiproliferation was assayed by PerkinElmer ATPlite™ Luminescence Assay System. Briefly, the various test cancer cell lines were plated at a density of about 1×10^4 cells per well in Costar 96-well plates, and were incubated with different concentrations of compounds for about 72 hours in medium supplemented with 5% FBS. One lyophilized substrate solution vial was then reconstituted by adding 5 mL of substrate buffer solution, and was agitated gently until the solution was homogeneous. About 50 μL of mammalian cell lysis solution was added to 100 μL of cell suspension per well of a microplate, and the plate was shaken for about five minutes in an orbital shaker at ˜700 rpm. This procedure was used to lyse the cells and to stabilize the ATP. Next, 50 μL substrate solution was added to the wells and microplate was shaken for five minutes in an orbital shaker at ˜700 rpm. Finally, the luminescence was measured by a PerkinElmer TopCount® Microplate Scintillation Counter. Such assays, carried out with a range of doses of test compounds, allowed the determination of the cellular anti-antiproliferative IC50 of the compounds of the present invention.
(§3) Cisplatin, the standard of Care of small cell lung cancer cell lines was used as the positive control drug.
For orientation: In ATP-based viability assays light output follows the ATP content of the culture.

For series [4], the system named is H1963. In words: In vitro anti-proliferation assay (ATPlite), small cell lung cancer cell line H1963. The following applies: 5% FBS, about 72 hours. The class given is cell-based. Here is the method: as §1, §2, §3
The test system of series [5] is Granta. In words: In vitro anti-proliferation assay (ATPlite), Granta. The series is classed as cell-based. As to conditions: 5% FBS, about 72 hours. Here is the method: as §1, §2
Series [6] concerns BCL-2-dependent acute lymphoblastic leukemia (ALL) cell line RS4;11. Kind of series: In vitro anti-proliferation assay (ATPlite) in RS4;11. The class given is cell-based. As to conditions: Homo sapiens; RS4;11, 5% FBS, about 72 hours; read-out: IC50, RS4; 115% FBS. Here is the method: Biological Example 2: In Vitro Anti-Proliferation Assay in BCL-2-Dependent Acute Lymphoblastic Leukemia (ALL) Cell Line RS4;11
as §2, with “with 5% FBS or 10% normal human serum (NHS). One lyophilized” for “with 5% FBS. One lyophilized”, “shaker at −700 rpm. This” for “shaker at ˜700 rpm. This”, “present invention. The following table lists the IC50 values of certain compounds of the invention.” for “present invention.”

For series [7], the system named is MV411. In words: In vitro anti-proliferation assay (ATPlite), MV411. The series is classed as cell-based. The following applies: Homo sapiens, MV4-11; 5% FBS, about 72 hours. The protocol: as §1, §2
For series [8], the system named is H889. In words: In vitro anti-proliferation assay (ATPlite), small cell lung cancer cell line H889. The following applies: 5% FBS, about 72 hours. The series is classed as cell-based. The protocol:
as §1, §2, §3

Series [9] is described as follows: Mice PK study, oral dosing. The following applies: CD-1 mouse, 10 mg/kg; for AUC(0-t) / bioavailability / half-life: plasma; for bioavailability: read-out: Bioavailabilty; for half-life: read-out: t ½ (converted). The class given is in vivo. The protocol: Biological Example 4: Mice PK Study
The pharmacokinetics of compounds were evaluated in CD-1 mouse via Intravenous and Oral Administration. The IV dose was administered as a slow bolus in the Jugular vein, and oral doses were administered by gavage. The formulation for IV dosing was 5% DMSO in 20% HPBCD in water, and the PO formulation was 2.5% DMSO, 10% EtOH, 20% Cremphor EL, 67.5% D5W. The PK time point for the IV arm was 5, 15, 30 min, 1, 2, 4, 6, 8, 12, 24 hours post dose, and for PO arm was 15, 30 min, 1, 2, 4, 6, 8, 12, 24 hours post dose. Approximately 0.03 mL blood was collected at each time point. Blood of each sample was transferred into plastic micro centrifuge tubes containing EDTA-K2 and collect plasma within 15 min by centrifugation at 4000 g for 5 minutes in a 4° C. centrifuge. Plasma samples were stored in polypropylene tubes. The samples were stored in a freezer at −75±15° C. prior to analysis. Concentrations of compounds in the plasma samples were analyzed using a LC-MS/MS method. WinNonlin (Phoenix™, version 6.1) or other similar software was used for pharmacokinetic calculations. The following pharmacokinetic parameters were calculated, whenever possible from the plasma concentration versus time data: IV administration: C0, CL, Vd, T1/2, AUCinf, AUClast, MRT, Number of Points for Regression; PO administration: Cmax, Tmax, T1/2, AUCinf, AUClast, F %, Number of Points for Regression. The pharmacokinetic data was described using descriptive statistics such as mean, standard deviation. Additional pharmacokinetic or statistical analysis was performed at the discretion of the contributing scientist, and was documented in the data summary.

The test system of series [10] is Toledo. Kind of series: In vitro anti-proliferation assay (ATPlite), Toledo. The series is classed as cell-based. The following applies: Homo sapiens, 5% FBS, about 72 hours. The protocol:
as §1, §2

Series [11] concerns circulating platelets. As to conditions: clinical trial; dose-limiting thrombocytopenia; cited from earlier work.
Series [12] has as its system H345 xenograft. As to conditions: 100 mg/kg/day, H345 xenograft model; cited from earlier work.
Series [13] deals with xenograft models of small-cell lung cancer and acute lymphoblastic leukemia. As to conditions: oral administration, alone; cited from earlier work.
Series [14] addresses T1, Bcl-w (Homo sapiens, UniProt Q92843).
T1 sequence (Q92843 1-193): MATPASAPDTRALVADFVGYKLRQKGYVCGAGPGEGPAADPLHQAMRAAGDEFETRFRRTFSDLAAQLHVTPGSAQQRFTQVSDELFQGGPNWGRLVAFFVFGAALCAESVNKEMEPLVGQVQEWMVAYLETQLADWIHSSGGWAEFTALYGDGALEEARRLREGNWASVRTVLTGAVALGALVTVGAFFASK
As to conditions: cited from earlier work.

The test system of series [15] is SCLC H146 cell line. As to conditions: read-out: IC50 against SCLC H146 cell line; cited from earlier work.
Series [16] concerns CLL. As to conditions: read-out: average EC50, apoptosis in CLL; cited from earlier work.
Series [17] has as its target Mcl-1 (Homo sapiens, UniProt Q07820). The following applies: cited from earlier work.
Series [18] concerns RS4;11 xenografts. The following applies: single dose of 100 mg/kg; cited from earlier work.
The test system of series [19] is RS4;11 cells. The following applies: cited from earlier work.

Sequence of Mcl-1 (Q07820 whole entry): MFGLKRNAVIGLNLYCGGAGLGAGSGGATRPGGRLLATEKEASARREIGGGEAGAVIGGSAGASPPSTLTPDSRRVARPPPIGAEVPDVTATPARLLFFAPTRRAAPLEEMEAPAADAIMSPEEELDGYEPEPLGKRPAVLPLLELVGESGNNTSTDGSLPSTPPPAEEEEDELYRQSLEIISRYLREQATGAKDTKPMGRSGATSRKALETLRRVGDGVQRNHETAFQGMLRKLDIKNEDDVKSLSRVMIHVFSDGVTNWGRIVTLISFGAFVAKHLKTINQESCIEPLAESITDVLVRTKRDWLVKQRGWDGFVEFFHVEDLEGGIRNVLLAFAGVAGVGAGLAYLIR

`CN(C)CC[C@H](CSc1ccccc1)Nc1ccc(S(=O)(=O)NC(=O)c2ccc(N3CCN(Cc4ccccc4-c4ccc(Cl)cc4)CC3)cc2)cc1[N+](=O)[O-]` [ABT-737]: the aqueous solubility entry in series [1] is “low aqueous solubility”. The oral bioavailability result in series [2] is “not orally bioavailable”.

Usually IC50 stands for the concentration needed to halve the response being measured. As usually defined, the AUC(0-t) is exposure summed from dosing to a finite time, without extrapolation to infinity. For the compound `CC1(C)CCC(CN2CCN(c3ccc(C(=O)NS(=O)(=O)c4ccc(NCC5CCOCC5)c([N+](=O)[O-])c4)c(N4CCCOc5nc6[nH]ccc6cc54)c3)CC2)=C(c2ccc(Cl)cc2)C1` [Example 2, 4-(4-((4′-chloro-5,5-dimethyl-3,4,5,6-tetrahydro-[1,1′-biphenyl]-2-yl)methyl)piperazin-1-yl)-2-(3,4-dihydro-2H-pyrrolo[3′,2′:5,6]pyrido[2,3-b][1,4]oxazepin-1(7H)-yl)-N-((3-nitro-4-(((tetrahydro-2H-pyran-4-yl)methyl)amino)phenyl)sulfonyl)benzamide], the IC50 was found to be 64 nM in [3] (Homo sapiens, NCI-H146); 5.6 nM in [4] (Homo sapiens, NCI-H1963); 3.5 nM in [5]; 0.12 nM in series [6]; 1.6 nM in series [7]; 1 nM in series [8] (Homo sapiens, NCI-H889). Half-maximal inhibition in series [10] (IC50) was put at 8.1 nM. For the same compound, the AUC(0-t) in [9] worked out at 9300 ng·h/mL. For the same compound, in [9], the bioavailability came to 49%. In [9], the half-life is 4.3 h.

As for `CC1(C)CCC(CN2CCN(c3ccc(C(=O)NS(=O)(=O)c4ccc(NC[C@@H]5COCCO5)c([N+](=O)[O-])c4)c(N4CCCOc5nc6[nH]ccc6cc54)c3)CC2)=C(c2ccc(Cl)cc2)C1` [Example 8, 4-(4-[[2-(4-chlorophenyl)-4,4-dimethylcyclohex-1-en-1-yl]methyl]piperazin-1-yl)-N-[4-([[(2R)-1,4-dioxan-2-yl]methyl]amino)-3-nitrobenzenesulfonyl]-2-[14-oxa-2,4,10-triazatricyclo[7.5.0.0^[3,7]]tetradeca-1(9),2,5,7-tetraen-10-yl]benzamide], the midpoint of inhibition in series [3], the IC50, lay at 50 nM. This compound also had a half-maximal inhibitory concentration (IC50) in series [4] of 5.3 nM. In series [8], this compound returned an IC50 of 0.7 nM. In [9], the “AUClast(h * ng/mL)” value is recorded as 5,714 h * ng/mL, the Bioavailabilty came out at 44% and the “t ½” value was found to be 2.3 h.

`CC1(C)CCC(CN2CCN(c3ccc(C(=O)NS(=O)(=O)c4ccc(NCC5(F)CCOCC5)c([N+](=O)[O-])c4)c(N4CCCOc5nc6[nH]ccc6cc54)c3)CC2)=C(c2ccc(Cl)cc2)C1` [Example 3, 4-(4-((4′-chloro-5,5-dimethyl-3,4,5,6-tetrahydro-[1,1′-biphenyl]-2-yl)methyl)piperazin-1-yl)-2-(3,4-dihydro-2H-pyrrolo[3′,2′:5,6]pyrido[2,3-b][1,4]oxazepin-1(7H)-yl)-N-((4-(((4-fluorotetrahydro-2H-pyran-4-yl)methyl)amino)-3-nitrophenyl)sulfonyl)benzamide]: the IC50 in series [3] (Homo sapiens, NCI-H146) was 43 nM; in series [4] (Homo sapiens, NCI-H1963), 4.2 nM; in series [6], under 0.1 nM; in [8] (Homo sapiens, NCI-H889), 0.9 nM. In series [9], this compound returned an AUC(0-t) of 4160 ng·h/mL. The bioavailability in series [9] was 30%. For the same compound, the half-life in [9] was 2.6 h.

By TGI is commonly meant the reduction of tumour growth relative to the control group. In general, Ki refers to the equilibrium dissociation constant of an inhibitor or competing ligand from its target. Take `CC1(C)CCC(c2ccc(Cl)cc2)=C(CN2CCN(c3ccc(C(=O)NS(=O)(=O)c4ccc(N[C@H](CCN5CCOCC5)CSc5ccccc5)c(S(=O)(=O)C(F)(F)F)c4)cc3)CC2)C1` [ABT-263]: the half-maximal inhibitory concentration (IC50) in series [3] (Homo sapiens, NCI-H146) is 28 nM; in [4] (Homo sapiens, NCI-H1963) it was 41.7 nM; in [8] (Homo sapiens, NCI-H889) it was 32.4 nM; in series [15] it was 110 nM. The “number of circulating platelets” value in [11] is on record as “rapid, concentration-dependent decrease in the number of circulating platelets”. The inhibition of tumour growth (TGI) in series [12] is given as 80%. Besides, the “treated tumors indicating at least a 50% reduction in tumor volume” value in series [12] is listed as 20%. Further, in series [13], the tumor regression result is reported as “complete tumor regressions”. The inhibition constant (Ki) in [14] is at most 1 nM.

On to `CC1(C)CCC(CN2CCN(c3ccc(C(=O)NS(=O)(=O)c4ccc(NC[C@H]5COCCO5)c([N+](=O)[O-])c4)c(N4CCCOc5nc6[nH]ccc6cc54)c3)CC2)=C(c2ccc(Cl)cc2)C1` [Example 9, 4-(4-[[2-(4-chlorophenyl)-4,4-dimethylcyclohex-1-en-1-yl]methyl]piperazin-1-yl)-N-[4-([[(2S)-1,4-dioxan-2-yl]methyl]amino)-3-nitrobenzenesulfonyl]-2-[14-oxa-2,4,10-triazatricyclo[7.5.0.0^[3,7]]tetradeca-1(9),2,5,7-tetraen-10-yl]benzamide], for which the half-maximal inhibitory concentration (IC50) in [3] came to 33 nM; in series [4] it was 4.7 nM; in [8] it was 0.7 nM. Further, in [9], the “AUClast(h * ng/mL)” value is listed as 8,168 h * ng/mL. In series [9], the Bioavailabilty stood at 64%. Moreover, the “t ½” value in [9] turned out to be 2.3 h.

On to `N.N.[Cl][Pt][Cl]` [Cisplatin, reference compound], for which the IC50 in [3] was 4590 nM; in series [4] it was 1670 nM; in series [8], 7080 nM.

For orientation: EC50 means the concentration giving half of the maximal effect. Regarding `CC1(C)CCC(CN2CCN(c3ccc(C(=O)NS(=O)(=O)c4ccc(NCC5CCOCC5)c([N+](=O)[O-])c4)c(Oc4cnc5[nH]ccc5c4)c3)CC2)=C(c2ccc(Cl)cc2)C1` [ABT-199], the figures for the EC50 in series [16] and in series [19] were 3 nM and 8 nM, respectively. The “activity to Mcl-1” value in series [17] is listed as “no activity”. Also, the IC50 was found to be 42.5 nM in series [5], 5.8 nM in series [6], 20.1 nM in series [7] and 98.1 nM in series [10]. Further, the “maximal tumor growth inhibition” value in [18] is 95%. Moreover, the tumor growth delay in [18] is 152%.
